From patent US20030017618A1, “Chemical sensor and method of detecting chemical” (priority 2000, published 2003)

Columns and labels:
[1] = target: T1, OBP 6C (Bos taurus, UniProt P07435); test: quantity of immobilization of OBP 6C to NTA sensor chip (surface plasmon resonance, BiacoreX) in presence of odorant; format: binding, bovine; settings: for affinity for the OBP 6C: OBP solution 200 nM, 25° C.
T1 construct: successively elongated for finally synthesizing the whole length of the OBP gene; made in house; host or cells: E. coli BL21 (pET 28a(+), pETOBP-His)
T1 sequence (P07435 1-159): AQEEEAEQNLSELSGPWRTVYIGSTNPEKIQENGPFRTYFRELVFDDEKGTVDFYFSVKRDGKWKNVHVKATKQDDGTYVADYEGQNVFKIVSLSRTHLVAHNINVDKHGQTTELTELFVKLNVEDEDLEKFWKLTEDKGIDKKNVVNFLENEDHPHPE
Protocol: In preparation of the OBP 6C solution employed in the present Inventive Example, the OBP 6C prepared in the aforementioned manner was dissolved in an EB (eluent buffer) and diluted so that the concentration of the solution reached 200 nM.
In preparation of the odorant solutions employed in the present Inventive Example, on the other hand, the six types of odorants, i.e., cineol, linalyl acetate, pinene, geraniol, citronellal and oxidized citronellal were dissolved in ethanol solutions (EtOH) respectively, for preparing odorant solutions of 10^−5 M in concentration as to the respective odorants.
100 μl of the OBP solution having the concentration of 200 nM prepared in the aforementioned manner and 0.1 μl of each odorant solution having the concentration of 10^−5 M were mixed with each other, for preparing six types of sample solutions employed for measurement. In this case, the final concentration of the odorant in each sample solution is […].
An ethanol solution of the OBP 6C (final concentration of EtOH: 0.1%) containing no odorant was also prepared as a comparative sample (blank).
Each sample solution prepared in the aforementioned manner was left to stand at 25° C. for one hour.
Then, an NTA sensor chip (by Biacore) was set in BiacoreX (by Biacore) and thereafter the temperature was set to 25° C. for performing priming with an elution buffer shown in Table 4 described later. Thereafter stabilization of the base was confirmed and the elution buffer was continuously fed at a flow velocity of 20 μl/min. until the temperature reached the set value.
Further, a reproduced solution (30 μl) shown in Table 4 described later was added at a flow velocity of 10 μl/min. and excessive bivalent cation was removed. Then, an Ni solution (30 μl) shown in Table 4 described later was added at a flow velocity of 10 μl/min. for chelating Ni to NTA and immobilizing Ni.
Then, one of the sample solutions (10 μl) prepared in the above was added at a flow velocity of 1 μl/min. for 10 minutes, for immobilizing the OBP 6C onto the sensor chip. After completion of immobilization, the quantity of immobilization of the OBP 6C was measured. Thereafter the reproduced solution shown in Table 4 was employed for washing and removing the OBP 6C immobilized onto the sensor chip.
Operations similar to the above were performed also as to the other sample solutions, for measuring the quantities of immobilization of the OBP 6C as to all of the six types of sample solutions and the comparative (blank) sample solution.
In this case, the quantity of immobilization of the comparative sample (blank) containing no odorant was regarded as 100% for calculating relative values of the quantities of immobilization of the OBP 6C in the respective samples with reference thereto.
In the present Inventive Example, an OBP 6C solution was first prepared along with preparation of DMO solutions. In this case, the OBP 6C solution was prepared by a method similar to the preparation method in Inventive Example 1. In preparation of the DMO solutions, DMO was dissolved in ethanol (EtOH), for preparing solutions of 10^−3, 10^−4, 10^−5 and 10^−6 M in concentration respectively.
100 μl of the OBP 6C solution having the concentration of […] and 0.5 μl of each of the DMO solutions of 10^−3, 10^−4, 10^−5 and 10^−6 M, thereby preparing sample solutions having DMO final concentration values of 5×10^−6, 5×10^−7, 5×10^−8 and 5×10^−9 M respectively. Also in this case, an ethanol solution (final concentration of EtOH: 0.1%) of the OBP 6C containing no DMO was prepared as a comparative sample, similarly to the case of Inventive Example 1.
The respective sample solutions prepared in the aforementioned manner were left to stand at 25° C. for one hour.
After preparing the sample solutions in the aforementioned manner, the quantities of immobilization of the OBP 6C were measured as to the respective sample solutions by a method similar to that in Inventive Example 1.

[2] = target: T2, bovine derivation odorant binding protein (OBP) (Bos taurus, UniProt P07435); settings: grade in words (high / moderate affinity); cited from earlier work
T2 sequence (P07435 1-159): T1 sequence (P07435 1-159)

[3] = Inventive Example 1, FIG. 12, odorant final concentration 10^−8 M, comparison between odorants
[4] = Inventive Example 1, FIG. 12, odorant final concentration 10^−8 M, blank regarded as 100%, comparison between odorants

Row | Compound | affinity for the OBP [2] | other results
1 | CC(C)CCCC(C)CCO (centres unmarked) | high affinity | DMO concentration that can be determined from the quantity of immobilization of the OBP 6C (quantitative limit) ([1]; Inventive Example 2, FIG. 13): at least 10^−8 M; DMO concentration range with constant correlation between concentration and quantity of immobilization of the OBP 6C ([1]; Inventive Example 2, FIG. 13, DMO 5×10^−6 to 5×10^−9 M): at least 5×10^−8 M; quantity of immobilization of the OBP 6C ([1]; Inventive Example 2, FIG. 13, DMO concentration smaller than 10^−8 M, versus absence of the odorant): equalized with the quantity of immobilization
2 | CCCCC/C(C=O)=C/c1ccccc1 [amyl cinnamic aldehyde] | high affinity | –
3 | CC/C(=C\CC1CC=C(C)C1(C)C)CO (centres unmarked) [bacdanol] | moderate affinity | –
4 | O=C(c1ccccc1)c1ccccc1 [benzophenone] | high affinity | –
5 | O=C(OCc1ccccc1)c1ccccc1 [benzyl benzoate] | high affinity | –
6 | CC(C)CC(=O)OCc1ccccc1 [benzyl isovalerate] | high affinity | –
7 | CC(C)CC(=O)OC1CC2CCC1(C)C2(C)C (centres unmarked) [bornyl isovalerate] | moderate affinity | –
8 | CC1C(C)(C)C2=C(C(=O)CCC2)C1(C)C (centres unmarked) [cashmeran] | moderate affinity | –
9 | CC/C=C\CC1=C(C)CCC1=O [cisjasmone] | moderate affinity | –
10 | COC(C=C(C)CCC=C(C)C)OC [citral dimethyl acetal] | moderate affinity | –
11 | CC(C)=CCCC(C)=CC#N [citralva] | high affinity | –
12 | CC(C)=CCCC(C)CC=O (centres unmarked) [citronellal] | moderate affinity | affinity for the OBP 6C [1, 3]: higher affinity for the OBP 6C as compared with geraniol; quantity of immobilization of the OBP 6C [1, 4]: reduced in citronellal as compared with geraniol
13 | CC(C)=CCCC(C)CCO (centres unmarked) [citronellol] | high affinity | –
14 | CC(=O)OCCC(C)CCC=C(C)C (centres unmarked) [citronellyl acetate] | moderate affinity | –
15 | CC(C)C/C=C(/C=O)c1ccccc1 [cocal] | moderate affinity | –
16 | CCCCCCCCCC=O [decanal] | moderate affinity | –
17 | CCOC(=O)c1ccccc1C(=O)OCC [diethylphthalate] | moderate affinity | –
18 | C=CC(C)CCCC(C)(C)O (centres unmarked) [dihydromyrcenol] | high affinity | –
19 | CC(C)CCCC(C)(C)O [dimethol] | moderate affinity | –
20 | CCCCC[C@H]1C(=O)CC[C@H]1CC(=O)OC [epimethyl dihydrojasmonate] | moderate affinity | –

Row | Compound | affinity for the OBP [2] | other results
21 | C=CCc1ccc(O)c(OC)c1 [eugenol] | moderate affinity | –
22 | CC1COCc2cc3c(cc21)C(C)(C)C(C)C3(C)C (centres unmarked) [galaxolide] | moderate affinity | –
23 | CC(C)=CCC/C(C)=C/CO [geraniol] | moderate affinity | –
24 | CC(C)=CCC/C(C)=C/CCC=O [geranyl acetaldehyde] | moderate affinity | –
25 | CC(=O)OC/C=C(\C)CCC=C(C)C [geranyl acetate] | moderate affinity | –
26 | CCCCCCC=O [heptanal] | moderate affinity | –
27 | CCCCCCC(C=O)=Cc1ccccc1 [hexyl cinnamic aldehyde] | high affinity | –
28 | CCCCCCOC(=O)C(C)CC (centres unmarked) [hexyl methylbutyrate] | moderate affinity | –
29 | CCCCCC1COCCC1OC(C)=O (centres unmarked) [jasmal] | moderate affinity | –
30 | C=CC(C)(O)CCC=C(C)C (centres unmarked) [linalool] | moderate affinity | –
31 | CC(C)[C@@H]1CC[C@@H](C)CC1=O [menthone] | moderate affinity | –
32 | CCCCCC1C(=O)CCC1CC(=O)OC (centres unmarked) [methyl dihydrojasmonate] | moderate affinity | –
33 | CC(C)=CCCC1=CCC(C=O)CC1 (centres unmarked) [myrmac aldehyde] | moderate affinity | –
34 | C/C=C(C)\C=C\C=C(C)C [neo-alloocimen] | moderate affinity | –
35 | CC(C)=CCC/C(C)=C\CO [nerol] | moderate affinity | –
36 | CCCCCCCCC=O [nonanal] | moderate affinity | –
37 | CCCCCCCCOC(=O)C(C)C [octyl isobutyrate] | moderate affinity | –
38 | CCCCCCCCOC(=O)CC(C)C [octyl isovalerate] | moderate affinity | –
39 | OCCc1ccccc1 [phenetyl alcohol] | moderate affinity | –
40 | CC1(C)C2CC=C(CCC=O)C1C2 (centres unmarked) [pinoacetaldehyde] | moderate affinity | –

Row | Compound | affinity for the OBP [2] | other results
41 | CC1=C(/C=C/C(C)=C/C=C/C(C)=C/C=O)C(C)(C)CCC1 [retinal] | moderate affinity | –
42 | CC1=C(/C=C/C(C)=C/C=C/C(C)=C/CO)C(C)(C)CCC1 [retinol] | moderate affinity | –
43 | Cc1c[nH]c2ccccc12 [skatole] | high affinity | –
44 | CCCCCCCCCCCCCC=O [tetradecanal] | high affinity | –
45 | CCCCCCCCCCC=O [undecanal] | high affinity | –
46 | CC(=O)OC1CCC(C(C)(C)C)CC1 (centres unmarked) [vertenex] | moderate affinity | –
47 | agrumea | moderate affinity | –
48 | ambrettolide | moderate affinity | –
49 | carbon | moderate affinity | –
50 | coniferane | moderate affinity | –
51 | dimethyl octane | moderate affinity | –
52 | dimethyl octhene | moderate affinity | –
53 | heptenal | moderate affinity | –
54 | hexyl pyridine | high affinity | –
55 | ionone | moderate affinity | –
56 | jessemal | moderate affinity | –
57 | musk 89 | high affinity | –
58 | oxidized citronellal | – | affinity for the OBP 6C [1, 3]: reduced in oxidized citronellal as compared with non-oxidized citronellal; quantity of immobilization of the OBP 6C [1, 4]: increased in oxidized citronellal as compared with the non-oxidized case
59 | pinylisobutyl aldehyde | moderate affinity | –
